Laboratory results from paper PMC10641831 (Journal of Medicinal Chemistry, 2023).
Values joined by “and” are separate entries in the source; they are usually repeats but may differ in a detail not shown here. Equal values may be shown once. Read-outs that look alike come from different tables or passages of the source. Numbered stars: 1 amine (or outer) side, 2 acyl side, 3 side chain; on linkers, the order of the positions; unused ones are H or OH. Bridge positions count the residues as written; N and C are the ends. Square brackets hold non-standard residues; d marks the D form. Peptide text beside a SMILES is read from it. AMPB(E) = O=C(c1ccc(/N=N/c2ccc(CN[*:1])cc2)cc1)[*:2]; X1 = O=C([C@H](Cc1ccc(/N=N/c2ccccc2)cc1)N[*:1])[*:2]

Experiments:
hV1aR = target: T1, hV1aR (Homo sapiens, UniProt P37288); experiment: IP-One accumulation assay, agonist function, HEK293 cells expressing hV1aR; assay type: cell-based; details: IP-One, stable HEK293 hV1aR; μM; read-out: V1aR EC50
T1 construct: expressed in transfected cells

hV1bR = target: T2, hV1bR (Homo sapiens, UniProt P47901); experiment: IP-One accumulation assay, agonist function, HEK293 cells expressing hV1bR; assay type: cell-based
T2 construct: expressed in transfected cells
T2 sequence (P47901 1-424): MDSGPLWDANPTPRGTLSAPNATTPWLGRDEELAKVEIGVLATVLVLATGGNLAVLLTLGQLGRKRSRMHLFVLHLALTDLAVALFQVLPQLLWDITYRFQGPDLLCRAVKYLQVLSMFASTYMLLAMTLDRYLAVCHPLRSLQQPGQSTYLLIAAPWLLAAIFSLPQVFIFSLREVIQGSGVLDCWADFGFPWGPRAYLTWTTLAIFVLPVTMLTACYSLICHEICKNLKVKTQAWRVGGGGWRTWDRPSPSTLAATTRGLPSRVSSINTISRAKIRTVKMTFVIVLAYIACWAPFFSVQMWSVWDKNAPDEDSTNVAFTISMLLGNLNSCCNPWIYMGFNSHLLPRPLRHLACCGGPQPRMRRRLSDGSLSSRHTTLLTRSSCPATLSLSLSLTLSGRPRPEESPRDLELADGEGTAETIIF

hOTR = target: T3, hOTR (Homo sapiens, UniProt P30559); experiment: IP-One accumulation assay, agonist function, HEK293 cells expressing hOTR; assay type: cell-based; details: for agonist character at OTR: IP-One assay; for potency difference between the E and Z isomers at OTR: EC50 E vs Z
T3 construct: expressed in transfected cells
T3 sequence (P30559 1-389): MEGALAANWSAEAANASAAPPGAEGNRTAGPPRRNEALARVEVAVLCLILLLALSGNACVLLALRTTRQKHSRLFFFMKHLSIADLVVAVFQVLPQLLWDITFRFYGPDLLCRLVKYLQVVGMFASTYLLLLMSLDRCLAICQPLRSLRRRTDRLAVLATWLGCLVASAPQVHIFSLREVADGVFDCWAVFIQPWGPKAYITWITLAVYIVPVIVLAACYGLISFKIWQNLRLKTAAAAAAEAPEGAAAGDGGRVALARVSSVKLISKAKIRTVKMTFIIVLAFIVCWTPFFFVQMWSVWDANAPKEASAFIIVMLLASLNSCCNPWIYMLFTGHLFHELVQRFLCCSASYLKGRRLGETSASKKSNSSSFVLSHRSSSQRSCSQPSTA

[1] = Thermal half-life of the Z-isomer (UV/vis, 96-well plate); assay type: physicochemical; details: for t1/2 (thermal half-life, Figure S50): 50 µM in HEPES buffer + 0.25% DMSO, pre-irradiated with 340 nm; for t1/2 (thermal half-life Z to E): preirradiation with 340 nm
Source text: All photoprobes were investigated regarding their photophysical properties in aqueous buffer (pH 7.5), mimicking the conditions of the biological functional assays. […] Upon irradiation with 340 nm light for 10 s and monitoring via UV/vis spectroscopy, all compounds could be switched to the Z-isomer, reaching the photostationary state (PSS). Compounds 8–17 containing azobenzene could be switched back to the E-isomer by irradiation at 420 nm for 60 s. Compounds 18 and 19 containing arylazopyrazole could be reverted to the E isomer by using 528 nm light. […] The PSS, when switched to the Z-isomer, was consistently good, with a PSS of 81–95%. […] The thermal half-lives of 10 and 12 were also measured at 37 °C, representing the temperature during the biological assays. As expected, the thermal half-lives decreased, however, the ratio of E and Z isomers remained stable during the incubation period of the biological assays (1 h).
Starting materials and commercial reagents were purchased from Acros, Alfa Aesar, Fisher, Fluka, Fluorochem, Merck (Sigma-Aldrich), TCI and VWR and were used without further purification. Solvents were used in p.a. quality or dried according to common procedures if necessary. All reactions with oxygen- or moisture-sensitive reagents were carried out in glassware that was dried before use by heating under vacuum. Dry nitrogen or argon was used for an inert gas atmosphere. All NMR spectra were measured at room temperature (20 °C) using a Bruker Avance 400 (400 MHz for ^1H and 101 MHz for ^13C) or a Bruker Avance 600 (600 MHz for ^1H and 151 MHz for ^13C) NMR spectrometer. All chemical shifts are reported in δ-scale as parts per million [ppm] (multiplicity, coupling constant J, number of protons) relative to the solvent residual peaks. Coupling constants J are given in hertz [Hz]. Abbreviations used for signal multiplicity: ^1H NMR: s = singlet, d = doublet, dd = doublet of doublets, ddd = doublet of doublets of doublets, dt = doublet of triplets, t = triplet, td = triplet of doublets, q = quartet, and m = multiplet. All mass spectra were recorded on an Agilent Q-TOF 6540 UHD, Finnigan MAT SSQ 710 A, Jeol AccuTOF GCX or ThermoQuest Finnigan TSQ 7000 spectrometer. Absorption spectra were recorded on an UV/vis Agilent Cary 50 spectrometer. Thermal half-lives were measured on a 96-well plate in a Thermo Scientific Multiskan Spectrum. Analytical TLC was performed on silica gel-coated alumina plates (MN precoated TLC-sheets ALUGRAM Xtra SIL G/UV254). Visualization was done using UV light (254 or 366 nm) or staining with ninhydrin solution. Column chromatography was performed on a Biotage Isolera One automated flash purification system with a UV/vis detector. Analytical RP-HPLC was carried out on an Agilent 1220 Infinity LC System (column: P/No 00F-4251-B0, Phenomenex Luna 3 μm C18(2) 100 Å, LC column 150 mm × 2.0 mm). Purification by preparative HPLC was conducted on a preparative HPLC Agilent 1260 Infinity LC System [column: P/No 00G-4253-P0-AX, Phenomenex Luna 10 μm C18(2) 100 Å, LC column 250 mm × 21.2 mm]. The eluent systems were used as specified. After the purification process, solvents were removed by lyophilization. Switching experiments were done with a 340 nm LED (SSC VIOSYS CUD4AF1B, 500 mA, 55 mW), 420 nm LED (ILH-XC01-S410-SC211-WIR200, 800 mA, 440 mW), and 528 nm LED (OSRAM Oslon SSL 80 green, 500 mA, 34 mW). Purity of all photoprobes was >95% as determined by analytical RP-HPLC at 220 nm in DMSO.
1.3.4. Thermal Half-lives
Thermal half-lives were measured in a 96-well plate in a Thermo Scientific Multiskan® Spectrum at 25 °C (and at 37 °C for compounds 10 and 12). The solutions (50 µM in HEPES buffer + 0.25% DMSO) were pre-irradiated with 340 nm. The absorption at 335 nm was measured every 3 h. The data was analyzed using Origin 2021.
0,7 1/2 ExpDec1 Fit of Sheet1 B
Modell ExpDec1 0,35 Modell ExpDec1
0,6 Gleichung y = A 1 *e xp (-x/t1 ) + y0 Gleichung y = A 1 *e xp (-x/t1 ) + y0 […]

[2] = Photostationary state by analytical C18-RP-HPLC; assay type: physicochemical; details: for PSS (E → Z): irradiation with 340 nm, HEPES buffer; for PSS (Z → E): irradiation with 420 nm (8–17) or 528 nm (18, 19)
Procedure: All photoprobes were investigated regarding their photophysical properties in aqueous buffer (pH 7.5), mimicking the conditions of the biological functional assays.
1.3.2. Photostationary States
Photostationary states (PSS) were measured on analytical C18-RP-HPLC (flow: 0.3 mL/min, solvent A: H2O (0.05% TFA), solvent B: MeCN). To determine the PSS of the photoswitches, the samples (in 0.1 mM in HEPES buffer + 1% DMSO, pH 7.5) were irradiated first with 340 nm to get the Z-isomer. Afterwards, the sample was irradiated with 420 nm (8-17) or 528 nm (18 and 19), respectively, to get back to the E-isomer. The samples were measured at the isosbestic points.

[3] = supplementary CSV, read-out: activity E-isomer OTR
[4] = supplementary CSV, read-out: activity Z-isomer OTR

T1 sequence (P37288 whole entry): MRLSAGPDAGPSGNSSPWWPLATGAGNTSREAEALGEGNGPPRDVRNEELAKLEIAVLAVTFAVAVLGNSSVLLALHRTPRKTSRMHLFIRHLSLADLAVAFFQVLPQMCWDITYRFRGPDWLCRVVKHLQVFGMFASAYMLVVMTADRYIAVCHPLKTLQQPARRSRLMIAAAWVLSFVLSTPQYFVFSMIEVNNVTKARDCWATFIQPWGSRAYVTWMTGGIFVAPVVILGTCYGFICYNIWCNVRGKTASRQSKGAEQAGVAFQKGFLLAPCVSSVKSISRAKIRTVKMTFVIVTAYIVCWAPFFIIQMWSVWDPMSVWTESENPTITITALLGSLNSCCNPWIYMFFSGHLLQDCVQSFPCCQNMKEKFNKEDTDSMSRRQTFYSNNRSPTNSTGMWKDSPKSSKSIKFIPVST

Compound | agonist character at OTR (hOTR) | EC50 (hOTR; [3]) [µM] | EC50 (hOTR; [4]) [µM] | t1/2 (thermal half-life, Figure S50) ([1]; 25 °C) [h] | t1/2 (thermal half-life Z to E) ([1]; 25 °C, HEPES buffer pH 7.4) [h] | PSS (E → Z) [2] [%] | potency difference between the E and Z isomers at OTR (hOTR) | PSS (Z → E) [2] [%] | also measured
NC(=O)CC[C@@H]1NC(=O)[C@H](Cc2ccccc2)NC(=O)[C@H](Cc2ccc(O)cc2)NC(=O)[C@@H](N)CSSC[C@@H](C(=O)NCc2ccc(/N=N/c3ccc(C(=O)NCC(N)=O)cc3)cc2)NC(=O)[C@H](CC(N)=O)NC1=O [E-13] (H-CYFQNC[AMPB(E)]G-NH2; disulfide 1-6) | – | – | – | – | – | – | – | – | EC50 (hV1aR): > 10 µM; Emax (hV1bR; HEK293, relative to the effect of VP, read-out: V1bR Emax ± SEM): 45 ± 3%; EC50 (hV1bR; IP-One, stable HEK293 hV1bR, read-out: V1bR EC50 ± SEM): 11.3 µM; V1bR E/Z ratio EC50 (hV1bR; ratio of EC50 of E- and Z-isomer): 1.6
CC[C@H](C)[C@@H]1NC(=O)[C@H](Cc2ccc(/N=N/c3ccccc3)cc2)NC(=O)[C@@H](N)CSSC[C@@H](C(=O)N2CCC[C@H]2C(=O)N[C@@H](CC(C)C)C(=O)NCC(N)=O)NC(=O)[C@H](CC(N)=O)NC(=O)[C@H](CCC(N)=O)NC1=O [compound 8, [AzbS^2]-OT] (H-C[X1]IQNCPLG-NH2; disulfide 1-6) | partial agonism | 4.5 ± 1.01 | 3.5 ± 1.89 | 132 | 132 | 94 | – | – | decrease in potency compared to OT at OTR (hOTR; EC50 vs OT): > 1400 fold; Emax (hOTR; HEK293, relative to the effect of OT, read-out: OTR Emax ± SEM): 35 to 45%; EC50 (hOTR; IP-One, both isomers, read-out: EC50 at OTR): 3 to 4 µM
CC[C@H](C)[C@@H]1NC(=O)[C@H](Cc2ccc(O)cc2)NC(=O)[C@@H](N)CSSC[C@@H](C(=O)N[C@@H](Cc2ccc(/N=N/c3ccccc3)cc2)C(=O)N[C@@H](CC(C)C)C(=O)NCC(N)=O)NC(=O)[C@H](CC(N)=O)NC(=O)[C@H](CCC(N)=O)NC1=O [compound 9, [AzbS^7]-OT] (H-CYIQNC[X1]LG-NH2; disulfide 1-6) | full agonist | 0.346 ± 0.03 | 0.136 ± 0.006 | 72 | 72 | 93 | 2.5 fold | – | –
CC[C@H](C)[C@@H]1NC(=O)[C@H](Cc2ccc(O)cc2)NC(=O)[C@@H](N)CSSC[C@@H](C(=O)NCc2ccc(/N=N/c3ccc(C(=O)NCC(N)=O)cc3)cc2)NC(=O)[C@H](CC(N)=O)NC(=O)[C@H](CCC(N)=O)NC1=O [compound 10, [AzbL^7/8]-OT] (H-CYIQNC[AMPB(E)]G-NH2; disulfide 1-6) | potent agonists | 0.0946 ± 0.019 | 0.0307 ± 0.004 | 40.8 | 40.8 | 86 | 3.1 fold and 3 fold | 81 | t1/2 (thermal half-life, Figure S50) ([1]; 37 °C): 24 h; t1/2 (thermal half-life Z to E) ([1]; 37 °C): 24 h
CC[C@H](C)[C@@H]1NC(=O)[C@H](Cc2ccc(O)cc2)NC(=O)[C@@H](N)CSSC[C@@H](C(=O)NCc2ccc(/N=N/c3ccc(C(=O)N[C@@H](CC(C)C)C(=O)NCC(N)=O)cc3)cc2)NC(=O)[C@H](CC(N)=O)NC(=O)[C@H](CCC(N)=O)NC1=O [compound 11, [AzbL^7]-OT] (H-CYIQNC[AMPB(E)]LG-NH2; disulfide 1-6) | potent agonists | 0.263 ± 0.021 | 0.134 ± 0.017 | 28.8 | 28.8 | 87 | 2 fold | 85 | –
NC(=O)CC[C@@H]1NC(=O)[C@H](Cc2ccccc2)NC(=O)[C@H](Cc2ccc(O)cc2)NC(=O)[C@@H](N)CSSC[C@@H](C(=O)NCc2ccc(/N=N/c3ccc(C(=O)N[C@@H](CCCN=C(N)N)C(=O)NCC(N)=O)cc3)cc2)NC(=O)[C@H](CC(N)=O)NC1=O [compound 14, [AzbL^7]-VP] (H-CYFQNC[AMPB(E)]RG-NH2; disulfide 1-6) | – | – | – | – | – | – | – | – | EC50 (hV1bR; supplementary CSV, read-out: activity Z-isomer V1bR): 2.37 ± 0.607 µM
[AzbC(m,m)^1,Dap^6]-VP [compound 17] | – | – | – | 686 | 686 | 93 | – | 88 | –
[AzbC(m,o)^1,Dap^6]-VP [compound 16] | – | – | – | 74.4 | 74.4 | 89 | – | 83 | –
[AzpC(m)^1,Dap^6]-VP [compound 19] | – | – | – | 1310 | 1310 | 93 | – | 87 | –
[AzpC(o)^1,Dap^6]-VP [compound 18] | – | – | – | 158 | 158 | 94 | – | 82 | –
